For the assay, the system named is cAMP production. Briefly: activity of inhibiting the cAMP production (method of Example 1 of WO 00/29441). The assay is classed as cell-based. The following applies: polypeptide obtained in Example 4, compared with the synthetic polypeptide of the same sequence. Here is the method:
The activity of inhibiting the cAMP production was determined for the polypeptide of the invention obtained in Example 4 (the polypeptide having the amino acid sequence of SEQ ID NO: 7) according to the method described in Example 1 of WO 00/29441.

Ends that are not written are not given here.

With “polypeptide having the amino acid sequence of SEQ ID NO: 7: polypeptide of the invention consisting of 37 amino acid residues, excised from a recombinant RFRP-1/CS23 fusion protein by S-cyanation and ammonolysis (SLNFEELKDWGPKNVIKMSTPAVNKMPHSFANLPLRF; not fully specified (C-terminus))”, the “activity of inhibiting the cAMP production” value was “has the activity as much as the synthetic polypeptide”.

Source of the values: US20040029215A1, “Process for producing rfrp” (priority 2000, published 2004).
